We go through one compound from PMC10321640, “The VIPR2-selective antagonist KS-133 changes macrophage polarization and exerts potent anti-tumor effects as a single agent and in combination with an anti-PD-1 antibody” (PLOS ONE, 2023).

The AUC(0-t) is exposure summed from dosing to a finite time, without extrapolation to infinity. Read a high AUC(0-t) as high exposure.

Where a SMILES comes first, the peptide text is derived from it. Bridges are numbered along the chain shown (N, C = ends).

Data set [1] can be described thus: In vivo pharmacokinetic study, plasma LC-MS/MS. The conditions noted are these: mouse, iv, 1 nmol/g body weight, male ICR mice, mean ± SD. An excerpt:
These animal experiments were approved by the Animal Care and Use Committee of Osaka University (approval No. Douyaku 30-3-2) and conducted at Osaka University in accordance with the aforementioned guidelines. LC–MS/MS data were obtained using an LCMS-8060NX MS system (Shimadzu Corp., Kyoto, Japan) connected to a Nexera X3 UHPLC system (Shimadzu) equipped with a Peptide BEH C18 column (1.7 μm, 2.1 × 50 mm, Waters Corp., Milford, MA, USA). Mobile phase A was 0.1% formic acid in water, and mobile phase B was acetonitrile. The elution profile of mobile phase B was 5% isocratic between 0 to 1 min, linear gradient from 5% to 50% between 1 to 1.5 min, and increase from 50% to 75% between 1.5 to 3 min. The flow rate was 0.2 mL/min. For pharmacokinetic studies, free or nanoformulated KS-133 was administered intravenously or subcutaneously to male ICR mice at 1 nmol/g body weight. Serial blood samples were collected from the tail vein using heparinized capillary tubes at the indicated times after administration. The plasma (5 μL) obtained from each blood sample was mixed with 10 μL of 0.1% formic acid in 50% (v/v) acetonitrile/water, and subsequently, 50 μL of acetonitrile was added. After centrifugation, aliquots (50 μL) of the supernatant were mixed with equal volumes of 0.2% formic acid in water and then injected into the LC–MS/MS system. Pharmacokinetic parameters were obtained from the plasma concentration–time data by non-compartmental analysis using Phoenix WinNonlin Software (Certara Companies, NJ, USA).
Fig 4 Pharmacokinetic study of KS-133 and KS-133 NPs in mice. Concentration of peptides in plasma at indicated time points after administration of peptide with or without nanoformulation are presented. (A) Intravenous administration of KS-133 (n = 3, 1 nmol/g, mean ± SD). (B) Subcutaneous administration of KS-133 and KS-133 NPs (n = 5, 1 nmol/g, mean ± SD). (C) Blood samples were collected at the indicated times. The concentration of KS-133 in plasma was determined by LC–MS/MS (mean ± SD, *p < 0.05 by Student’s t-test). The pharmacokinetic parameters Cmax (μM), tmax (h), t1/2 (h), AUC0-t (μmol·h/L), AUC0-inf,pred (μmol·h/L), and MRTinf,pred (h) were calculated as described in the “Materials and methods” section. […]

The conditions of data set [2]: cited from earlier work. An excerpt: Vasoactive intestinal peptide receptor 2 (VIPR2) is a class-B G protein-coupler receptor that participates in various physiological function by interacting with its ligand vasoactive intestinal peptide (VIP). VIP–VIPR2 signaling has attracted attention as a drug target in the fields of central nervous system diseases, oncology, and immunity. In 2021, we generated 13-mer bicyclic peptide KS-133 as a potent and selective antagonist to VIPR2 [1]. […] Generally, peptides are rapidly degraded by proteases, and even if they are resistant to degradation, they are prematurely excreted from the body via renal filtration. Thus, frequent dosing is needed, reducing patients’ quality of life. KS-133 is stable in plasma for at least 24 h. Unfortunately, daily dosing is required for the anti-tumor effects of KS-133 in vivo. A versatile method for improving the pharmacokinetics of peptides is conjugation with polyethylene glycol, but this req ...

In the case of `CC[C@H](C)[C@H](NC(=O)[C@H](CC(C)C)NC(=O)[C@@H]1CC(=O)NCCCC[C@@H]2NC(=O)[C@@H]3CCCN3C(=O)[C@H](CC(C)C)NC(=O)[C@H](Cc3ccc(O)cc3)NC(=O)[C@@H]3CCCN3C(=O)[C@@H]3CCCN3C(=O)[C@@H](NC(C)=O)CSSC[C@H](NC(=O)[C@H](CC(C)C)NC(=O)[C@H](Cc3ccc(O)cc3)NC2=O)C(=O)N1)C(N)=O` [KS-133] (Ac-CPPYLPKYLCDLI-NH2; disulfide 1-10; lactam 7-11), in data set [1] (i.v., n = 3, read-out: AUC0-inf, pred), the AUC(0-inf) came to 10.1 ± 1.73 µM·h. In addition, the MRT in data set [1] (i.v., n = 3, read-out: MRTinf, pred) was 58.8 ± 6.6 min. The half-life in data set [1] (i.v., non-compartmental, n = 3, read-out: t1/2 (elimination half-life from plasma) (converted)) was 40.8 min. In data set [1] (n = 3), this compound yielded an AUC(0-t) of 7.51 ± 1.77 µM·h. Moreover, in data set [2], the protease degradation result is listed as “resistant to protease degradation”. Also, the “time stable in plasma” value in data set [2] (plasma) is “at least 24 h”.
